Non-standard residues stand in square brackets, D forms with d. No end group written: not given here. Cit = NC(=O)NCCC[C@H](N)C(=O)O
Legend:
[1] = system: New Zealand White rabbits; experiment: High-dose IV bolus toxicity of ATI-5261 in rabbits (plasma ALT, AST, TG, unesterified cholesterol); type: in vivo, rabbit; settings: male New Zealand White rabbits, single IV bolus 3, 30 or 300 mg/kg
Text: Peptides or peptidomimetics of the invention can be evaluated for toxicity using known assays. Examples of such assays are illustrated in the Examples section. Toxicity is typically assayed in a rat, rabbit, mouse, monkey or dog model. […] Safety chemistry panels including plasma alanine aminotransferase (ALT), aspartate amino transferase (AST), and creatine kinase (CK) can then be determined in the blood. The presence of elevated levels of these enzymes in the blood compared to control normal values is indicative of toxicity. A peptide of the invention is typically considered to be non-toxic or to have little toxicity, when the results using the highest dose, 300 mg/kg in this illustrative assay, are equivalent (fall within the standard deviation) of the values measured for the control animals that received vehicle alone, or are no more than 2 or 3 times background obtained with vehicle alone. […]
Cytotoxicity of an HDL mimetic peptide ATI-5261 at high doses was evaluated in rats and rabbits (FIG. 1). […]
For the experiments in FIG. 2, male chow-fed Wistar rats (Panels A and B) were administered ATI-5261 at doses of 3, 30, and 300 mg/kg as described in FIG. 1. Plasma triglyceride (TG, Panel A) and unesterified cholesterol (Panel B) concentrations were determined enzymatically at the times indicated. […]

C57Bl/6 mice = experiment: Safety and TG elevating effects after IP injection in C57Bl/6 mice (plasma CPK, ALT, AST, lipids); type: in vivo
Experimental: The high-dose cytotoxic response of ATI-5261 observed in rat, rabbit and cynomolgus monkey is additionally recapitulated in mice (FIG. 4). Male chow-fed C57bl/6 mice were injected intraperitonelly (IP) with 30 or 300 mg/kg of lipid-fee ATI-5261. Blood was collected via the retro-orbital plexus 4 h after peptide injection and plasma subsequently obtained for measurement of CPK (Panel A) and ALT and AST activities (Panel B, ALT left bars; AST, right bars). Values are means±SD, n=4 mice per group.
This example illustrates that aromatic phenylalanine residues associated with the non-polar surface of ATI-5261 contributed to the majority of the peptide toxicity (FIG. 5). […] Blood was collected via retro-orbital plexus 4 h after injection for isolation of plasma. Levels of plasma CPK (Panel A), ALT (panel B) and AST (Panel C) were determined as described in FIG. 1. Values are means±SD, n=4 mice per group.
All values (mg/dl) are means±SD, n=4, determined at 4 and 6 h post treatment with peptide.

HDL in human plasma = experiment: preβ HDL formation in human plasma, 2D NDGGE and western blot
Experimental: To test whether CS6253 exerts anti-atherogenic effects in a biological milieu, human plasma was exposed (5 min) to lipid-free peptide. Interactions of CS6253 with HDL and activity of plasma to stimulate cholesterol efflux was assessed, using J774 macrophages labeled with [^3H]cholesterol. Panel A—Cholesterol efflux activity of plasma treated with lipid-free peptides. Human plasma was incubated with 300 μg/ml peptides for 5 minutes (4° C.), diluted to 1% in serum-free RPMI-1640 culture medium and immediately added to [^3H]cholesterol-labeled J774 cells. […] Panel B—Induction of preβ HDL upon treatment of human plasma with CS6253. Plasma was exposed to a small amount of peptide relative to endogenous apoA-I (1:10 mole ratio, respectively) and formation of preβ HDL assessed by 2D non-denaturing gradient gel electrophoresis (NDGGE) and western blot analysis. […] This is consistent with no peptide being associated with the preβ HDL fraction, indicating the particles were authentic preβ particles composed on endogenous apoA-I.

apoE−/− mice = experiment: Atherosclerosis in apoE−/− mice on high-fat western diet, whole aorta Oil-Red O staining; type: in vivo, mouse
Experimental: Male apoE^−/− mice at 8 weeks of age were fed a high-fat western diet for 14 weeks. Mice were subsequently randomized to either a control group to receive IP injection of vehicle alone or lipid-free peptide (30 mg/kg) at 48 hour intervals for 6 weeks. […] The extent of whole aorta covered with fatty lesions is shown, determined by Oil-Red O staining. Values are means±SD, n=10 mice per group.
CS6253, another synthesis batch of T5237-4, was administered IP at 10 mg/kg for 10 weeks showing again reduction of substantial atherosclerosis in apoE^−/− mice (FIG. 36). Male apoE^−/− mice at 8 weeks of age were fed a high-fat western diet for 14 weeks. Mice were subsequently randomized to either a control group to receive IP injection of vehicle alone or lipid-free CS6253 (10 mg/kg) at 48 hour intervals for 10 weeks while the mice remained on high-fat western diet. The extent of whole aorta covered with fatty lesions is shown, determined by Oil-Red O staining. Values are means±SD, n=10 mice per group.
CS6253 administered SC also reduce substantial atherosclerosis in apoE KO mice. Male apoE−/− mice at 8 weeks of age were fed a high-fat western diet for 14 weeks (FIG. 37). One group was terminated before treatment start as baseline control. Mice were subsequently randomized to one of 3 arms to receive subcutaneous (SC) injection alternate days for 6 weeks; vehicle alone, CS6253 30 mg/kg or CS6253 60 mg/kg. During the first 4 treatment weeks the mice remained on high-fat western diet while during the last two weeks of treatment they were switched to chow diet. The extent of whole aorta covered with fatty lesions is shown, determined by Oil-Red O staining. Values are means±SD, n=10 mice per group.

With “ATI-5261: HDL mimetic peptide, parent peptide; triglyceride elevating and muscle toxic peptide used as positive control (EVRSKLEEWFAAFREFAEEFLARLKS) [reference compound]” the “cytotoxic response (plasma ALT and AST)” value [1] was “induced a cytotoxic response”, the “plasma triglycerides and cholesterol” value [1] was “increased plasma triglycerides and cholesterol” and the “plasma TG, total and unesterified (free) cholesterol (FC)” value (C57Bl/6 mice; C57Bl/6 mice, 300 mg/kg, 4 and 6 h post treatment) was “marked increase”. For the same substance, the “cytotoxic/toxic response (plasma CPK, ALT, AST)” value (C57Bl/6 mice; male chow-fed C57Bl/6 mice, IP 300 mg/kg, plasma 4 h after injection) was “High levels of cytotoxic markers”.

In the case of “EVCitSKLEEWLAALCitELAEELLARLKS (SEQ ID NO:2) (EV[Cit]SKLEEWLAAL[Cit]ELAEELLARLKS) [CS6253, citrulline form of LeuATI-5261, R3,14→Citrulline, 26-mer]”, the “association of peptide with HDL species in plasma” value (HDL in human plasma; antibody against CS6253) is reported as “associated with α-HDL”, the “preβ HDL formation” value (HDL in human plasma; peptide:endogenous apoA-I 1:10 mole ratio, apoA-I antibody) is reported as “increase in preβ HDL” and the “extent of whole aorta covered with fatty lesions” value (shortened to “extent of whole aorta covered”) (apoE−/− mice; IP 10 mg/kg at 48 hour intervals for 10 weeks) is reported as “reduced atherosclerosis”. For the same substance, the “extent of whole aorta covered” value (apoE−/− mice; IP 30 mg/kg at 48 hour intervals for 6 weeks) was “reduced atherosclerosis” and the “extent of whole aorta covered” value (apoE−/− mice; SC 30 mg/kg or 60 mg/kg alternate days for 6 weeks) was “reduced atherosclerosis”.

Reference: patent publication US9416162B2, “Peptides having reduced toxicity that stimulate cholesterol efflux” (The Regents of the University of California, priority 2013, dated 2016)
